Reference: patent publication US20260309717A1, “PROXIMITY INDUCING SYSTEM AND USES THEREOF” (SORBONNE UNIVERSITE, priority 2022, published 2026)

Tests used:
[1] = target: T1, ^FIREmate and ^FIREtag (TOM20-ECFP-^FIREmate / mCherry-^FIREtag) (Halorhodospira halophila, UniProt P16113, A30V/C69G/D97P/F96I, form not given/G21E/G25R/K17N/M100R/M109L/Q41L/Q99S/S72T/T101G/V83A/Y94W/Y98T); assay: Stability of the ternary assembly over time at mitochondria, time-lapse confocal microscopy, U2OS cells; type: cell-based; settings: 10 μM; 1 image every 2 minutes
T1 construct: TOM20(1-34)-ECFP-FIREmate and mCherry-FIREtag in HeLa or U2OS cells
T1 sequence (P16113 1-114 A30V/C69G/D97P/F96I/G21E/G25R/K17N/M100R/M109L/Q41L/Q99S/S72T/T101G/V83A/Y94W/Y98T): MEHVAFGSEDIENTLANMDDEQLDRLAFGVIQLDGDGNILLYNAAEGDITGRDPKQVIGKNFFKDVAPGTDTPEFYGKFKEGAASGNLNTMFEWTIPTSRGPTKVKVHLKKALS
Procedure: FIGS. 4A-D illustrate the recruitment over time of cytoplasmic proteins to mitochondria with the proximity inducing system described herein. (4A, C) HeLa cells co-expressing mCherry-^FIREtag and Tom20-ECFP-^FIREmate were treated with 10 μM HBR-2,5DM and imaged by time-lapse confocal microscopy at 1 image per 5 seconds. (4B, D) U2OS cells co-expressing mCherry-^FIREtag and Tom20-ECFP-^FIREmate were treated with 10 μM HBR-2,5DM and imaged by time-lapse confocal microscopy at 1 image every 2 minutes. FIG. 4A is a representative time-lapse of the HeLa cells from the addition of HBR-2,5DM at 0 sec (ex/em 488/508-570 nm). […] Scale bars are 20 μm. FIG. 4B is a representative time-lapse of the U2OS cells from the addition of HBR-2,5DM at 0 min (mCherry: ex/em 561/606-675 nm; FIRE: ex/em 488/508-570 nm; ECFP: ex/em 445/455-499 nm). […] Scale bars are 20 μm. FIG. 4C is a graph showing the temporal evolution of the FIRE signal detected in HeLa cells upon addition of HBR-2,5DM at 0 sec. […] FIG. 4D is a graph showing the temporal evolution of the FIRE signal detected in U2OS cells upon addition of HBR-2,5DM at 0 min. […]
The confocal micrographs were acquired on a Zeiss LSM 980 Laser Scanning Microscope equipped with a plan apochromat 63x/1.4 NA oil immersion objective. […] The images were analyzed using Icy (2.4.0.0) and Fiji (Image J). […]

[2] = target: T2, ^FIREmate and ^FIREtag (fused to FRB and FKBP) (Halorhodospira halophila, UniProt P16113, A30V/C69G/D97P/F96I, form not given/G21E/G25R/K17N/M100R/M109L/Q41L/Q99S/S72T/T101G/V83A/Y94W/Y98T); assay: Flow cytometry of fluorescent ternary assembly formation in HEK293T cells co-expressing FKBP-^FIREtag and FRB-^FIREmate; type: cell-based
T2 sequence (P16113 1-114 A30V/C69G/D97P/F96I/G21E/G25R/K17N/M100R/M109L/Q41L/Q99S/S72T/T101G/V83A/Y94W/Y98T): T1 sequence (P16113 1-114 A30V/C69G/D97P/F96I/G21E/G25R/K17N/M100R/M109L/Q41L/Q99S/S72T/T101G/V83A/Y94W/Y98T)
Procedure: FIGS. 2A and 2B are graphs illustrating the fluorogen-dependent interaction between the two polypeptides ^FIREmate and ^FIREtag. The graphs show the normalized average fluorescence detected from about 50,000 HEK293T cells co-expressing the FK506-binding protein (FKBP) fused to ^FIREtag and the FKBP-rapamycin-binding domain of mammalian target of rapamycin (FRB) fused to ^FIREmate treated without (triangles) or with (squares) 500 nM of rapamycin, and with 1, 5, 10, 25 or 50 μM of HBR-2,5DM (2A) or HMBR (2B). Data represent the mean values±SD of three independent experiments.
The formation of a fluorescent ternary assembly was assessed by flow cytometry in HEK293 cells expressing ^FIREmate and ^FIREtag fused to the C-termini of FKBP (FK506-binding protein) and FRB (FKBP-rapamycin-binding domain of mammalian target of rapamycin), […]. FKBP and FRB are able to dimerize upon addition of rapamycin. Treatment of the HEK293 cells with rapamycin is thus expected to induce the dimerization of FKBP and FRB, and subsequently to induce proximity between ^FIREtag and ^FIREmate.

Cc1cc(/C=C2\SC(=S)NC2=O)c(C)cc1O [HBR-2,5DM, (Z)-5-(4-hydroxy-2,5-dimethylbenzylidene)-2-thioxo-1,3-thiazolidin-4-one]
duration of fluorescence detected (stability of the ternary fluorescent assembly) [1]: more than 25 minutes | dimerization of FKBP and FRB (induced proximity) ([2]; absence of rapamycin): able to induce the dimerization of FKBP and FRB | formation of a ternary fluorescent assembly ([2]; fluorogen 1, 5, 10, 25 or 50 μM, HEK293 cells): induced the formation of a ternary fluorescent assembly at all tested fluorogen concentrations | dependence of ternary fluorescent assembly formation on rapamycin (initial proximity) ([2]; with or without 500 nM rapamycin, fluorogen 1-50 μM): regardless of the presence or absence of rapamycin
